Source: ChEMBL document CHEMBL5230103, “Hydroxamic acid hybrids as the potential anticancer agents: An Overview” (Eur J Med Chem, 2020)

Legend:
[1] = system: ES-2; experiment: Cytotoxicity against human ES2 cells assessed as inhibition of cell growth by MTT assay; format: functional, cell-based
[2] = system: U-937; experiment: Cytotoxicity against human U-937 cells assessed as inhibition of cell growth by MTT assay; format: functional, cell-based
[3] = system: PLC-PRF-5; experiment: Cytotoxicity against human PLC-PRF-5 cells assessed as inhibition of cell growth by MTT assay; format: functional, cell-based
[4] = system: K562; experiment: Cytotoxicity against human K562 cells assessed as inhibition of cell growth by MTT assay; format: functional, cell-based
[5] = system: HepG2; experiment: Cytotoxicity against human HepG2 cells assessed as inhibition of cell growth by MTT assay; format: functional, cell-based
[6] = system: PC-3; experiment: Cytotoxicity against human PC-3 cells assessed as inhibition of cell growth by MTT assay; format: functional, cell-based
[7] = system: NCI-H929; experiment: Antiproliferative activity against human NCI-H929 cells assessed as inhibition of cell growth by MTT assay; format: functional, cell-based
[8] = biological target: Histone deacetylase 8 (Homo sapiens, UniProt Q9BY41); experiment: Inhibition of HDAC8 (unknown origin)
Sequence of Histone deacetylase 8 (Q9BY41 whole entry): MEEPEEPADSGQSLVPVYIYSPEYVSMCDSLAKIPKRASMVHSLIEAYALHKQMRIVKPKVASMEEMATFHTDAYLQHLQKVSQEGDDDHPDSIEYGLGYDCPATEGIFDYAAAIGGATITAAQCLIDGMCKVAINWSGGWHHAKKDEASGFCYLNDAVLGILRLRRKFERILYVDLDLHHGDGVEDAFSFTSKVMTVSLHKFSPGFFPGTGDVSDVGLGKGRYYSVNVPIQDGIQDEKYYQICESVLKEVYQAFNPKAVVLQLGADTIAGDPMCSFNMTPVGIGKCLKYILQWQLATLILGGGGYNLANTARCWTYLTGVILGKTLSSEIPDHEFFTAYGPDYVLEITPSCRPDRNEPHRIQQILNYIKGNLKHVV

[9] = system: MCF7; experiment: Antiproliferative activity against human MCF7 cells assessed as inhibition of cell growth by MTT assay; format: functional, cell-based
[10] = system: HL-60; experiment: Antiproliferative activity against human HL-60 cells assessed as inhibition of cell growth by MTT assay; format: functional, cell-based
[11] = system: U-937; experiment: Antiproliferative activity against human U-937 cells assessed as inhibition of cell growth by MTT assay; format: functional, cell-based
[12] = biological target: T1, Protein deacetylase HDAC6 (Homo sapiens, UniProt Q9UBN7); experiment: Inhibition of HDAC6 (unknown origin)
T1 sequence (Q9UBN7 whole entry): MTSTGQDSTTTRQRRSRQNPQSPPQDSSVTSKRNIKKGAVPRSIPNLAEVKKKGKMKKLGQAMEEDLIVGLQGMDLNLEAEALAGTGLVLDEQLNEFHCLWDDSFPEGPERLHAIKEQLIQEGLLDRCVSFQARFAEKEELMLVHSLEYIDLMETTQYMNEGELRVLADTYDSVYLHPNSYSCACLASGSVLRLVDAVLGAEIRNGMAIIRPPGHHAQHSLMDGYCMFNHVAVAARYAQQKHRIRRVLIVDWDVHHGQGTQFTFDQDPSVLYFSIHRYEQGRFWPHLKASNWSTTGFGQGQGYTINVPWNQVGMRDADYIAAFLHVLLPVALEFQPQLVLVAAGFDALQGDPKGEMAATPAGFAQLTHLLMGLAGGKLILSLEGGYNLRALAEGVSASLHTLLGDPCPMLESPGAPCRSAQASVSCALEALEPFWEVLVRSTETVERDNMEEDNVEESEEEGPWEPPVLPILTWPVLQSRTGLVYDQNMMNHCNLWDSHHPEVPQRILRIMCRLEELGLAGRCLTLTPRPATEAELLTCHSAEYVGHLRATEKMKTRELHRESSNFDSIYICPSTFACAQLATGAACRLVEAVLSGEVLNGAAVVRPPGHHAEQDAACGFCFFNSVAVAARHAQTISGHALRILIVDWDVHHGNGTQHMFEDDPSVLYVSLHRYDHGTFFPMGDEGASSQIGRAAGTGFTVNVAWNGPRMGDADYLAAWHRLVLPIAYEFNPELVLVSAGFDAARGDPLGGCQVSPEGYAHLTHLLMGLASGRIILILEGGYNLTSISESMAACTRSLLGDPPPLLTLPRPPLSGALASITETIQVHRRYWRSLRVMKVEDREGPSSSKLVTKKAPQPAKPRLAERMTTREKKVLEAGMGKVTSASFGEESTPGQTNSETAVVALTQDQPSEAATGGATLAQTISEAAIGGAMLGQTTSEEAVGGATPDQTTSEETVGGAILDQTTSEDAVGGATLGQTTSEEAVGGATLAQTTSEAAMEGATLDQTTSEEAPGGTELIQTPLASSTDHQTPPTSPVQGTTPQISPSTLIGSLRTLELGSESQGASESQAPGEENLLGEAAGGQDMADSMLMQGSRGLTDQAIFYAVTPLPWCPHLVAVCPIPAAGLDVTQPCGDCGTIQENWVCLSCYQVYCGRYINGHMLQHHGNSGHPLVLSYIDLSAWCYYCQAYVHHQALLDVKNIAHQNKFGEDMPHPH

[13] = system: U-266; experiment: Antiproliferative activity against human U-266 cells assessed as inhibition of cell growth by MTT assay; format: functional, cell-based
[14] = biological target: Histone deacetylase 1 (Homo sapiens, UniProt Q13547); experiment: Inhibition of HDAC1 (unknown origin)
Sequence of Histone deacetylase 1 (Q13547 whole entry): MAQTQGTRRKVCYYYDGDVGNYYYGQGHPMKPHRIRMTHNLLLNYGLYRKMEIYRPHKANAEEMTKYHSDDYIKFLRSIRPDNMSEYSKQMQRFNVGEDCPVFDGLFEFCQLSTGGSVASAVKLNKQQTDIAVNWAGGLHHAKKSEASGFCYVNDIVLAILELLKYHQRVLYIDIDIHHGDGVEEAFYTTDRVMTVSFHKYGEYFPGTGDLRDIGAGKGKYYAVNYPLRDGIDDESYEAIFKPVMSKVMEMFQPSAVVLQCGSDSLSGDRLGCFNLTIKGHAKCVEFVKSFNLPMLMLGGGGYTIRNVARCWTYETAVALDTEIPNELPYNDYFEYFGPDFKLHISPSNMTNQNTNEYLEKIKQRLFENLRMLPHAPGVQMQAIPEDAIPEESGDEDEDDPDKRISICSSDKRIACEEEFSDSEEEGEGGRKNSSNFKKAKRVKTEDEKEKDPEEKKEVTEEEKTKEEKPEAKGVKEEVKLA

[15] = biological target: Histone deacetylase 3 (Homo sapiens, UniProt O15379); experiment: Inhibition of HDAC3 (unknown origin)
Sequence of Histone deacetylase 3 (O15379 whole entry): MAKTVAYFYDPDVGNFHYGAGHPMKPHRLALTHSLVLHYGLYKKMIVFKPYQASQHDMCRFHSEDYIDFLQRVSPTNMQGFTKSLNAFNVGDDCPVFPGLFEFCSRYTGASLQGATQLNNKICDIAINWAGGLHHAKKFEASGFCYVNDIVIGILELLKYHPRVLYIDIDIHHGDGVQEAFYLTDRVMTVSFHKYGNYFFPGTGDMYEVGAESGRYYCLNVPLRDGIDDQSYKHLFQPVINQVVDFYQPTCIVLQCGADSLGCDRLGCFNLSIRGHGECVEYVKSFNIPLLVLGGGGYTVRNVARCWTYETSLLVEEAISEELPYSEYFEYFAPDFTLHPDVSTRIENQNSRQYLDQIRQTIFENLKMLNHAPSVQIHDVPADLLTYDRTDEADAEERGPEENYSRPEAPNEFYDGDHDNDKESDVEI

[16] = system: SH-SY5Y; experiment: Antiproliferative activity against human SH-SY5Y cells assessed as inhibition of cell growth by MTT assay; format: functional, cell-based
[17] = biological target: Histone deacetylase 2 (Homo sapiens, UniProt Q92769); experiment: Inhibition of HDAC2 (unknown origin)
Sequence of Histone deacetylase 2 (Q92769 whole entry): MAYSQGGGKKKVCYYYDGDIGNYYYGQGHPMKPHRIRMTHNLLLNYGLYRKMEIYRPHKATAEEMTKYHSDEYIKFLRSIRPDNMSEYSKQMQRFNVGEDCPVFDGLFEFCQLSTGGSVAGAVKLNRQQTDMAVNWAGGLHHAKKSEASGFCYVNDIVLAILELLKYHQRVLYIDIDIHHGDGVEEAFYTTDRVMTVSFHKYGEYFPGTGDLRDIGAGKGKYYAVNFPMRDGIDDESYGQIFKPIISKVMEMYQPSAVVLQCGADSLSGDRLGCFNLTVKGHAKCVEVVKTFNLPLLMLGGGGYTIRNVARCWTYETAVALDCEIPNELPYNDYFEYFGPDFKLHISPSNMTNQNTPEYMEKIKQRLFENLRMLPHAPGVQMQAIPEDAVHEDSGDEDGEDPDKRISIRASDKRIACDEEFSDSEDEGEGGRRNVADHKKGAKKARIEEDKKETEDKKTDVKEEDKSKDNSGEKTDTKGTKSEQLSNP

[18] = system: SMMC-7721; experiment: Cytotoxicity against human SMMC-7721 cells assessed as inhibition of cell growth by MTT assay; format: functional, cell-based
[19] = system: NCI-H460; experiment: Cytotoxicity against human NCI-H460 cells assessed as inhibition of cell growth by MTT assay; format: functional, cell-based
[20] = system: EJ; experiment: Cytotoxicity against human EJ cells assessed as inhibition of cell growth by MTT assay; format: functional, cell-based
[21] = biological target: Histone deacetylase; experiment: Inhibition of HDAC (unknown origin); format: protein assay, Homo sapiens
[22] = system: MCF7; experiment: Cytotoxicity against human MCF7 cells assessed as inhibition of cell growth by SRB assay; format: functional, cell-based
[23] = system: MCF7; experiment: Cytotoxicity against human MCF7 cells assessed as inhibition of cell growth by MTT assay; format: functional, cell-based
[24] = system: Ramos; experiment: Cytotoxicity against human Ramos cells assessed as inhibition of cell growth by SRB assay; format: functional, cell-based
[25] = system: SU-DHL-6; experiment: Cytotoxicity against human SU-DHL-6 cells assessed as inhibition of cell growth by SRB assay; format: functional, cell-based
[26] = system: SNU-398; experiment: Cytotoxicity against human SNU-398 cells assessed as inhibition of cell growth by SRB assay; format: functional, cell-based
[27] = system: PC-3; experiment: Cytotoxicity against human PC-3 cells assessed as inhibition of cell growth by SRB assay; format: functional, cell-based
[28] = system: SW-620; experiment: Potency index, ratio of vorinostat IC50 to test compound IC50 for cytotoxicity against human SW620 cells assessed as inhibition of cell growth by SRB assay; format: functional
[29] = system: PC-3; experiment: Potency index, ratio of vorinostat IC50 to test compound IC50 for cytotoxicity against human PC-3 cells assessed as inhibition of cell growth by SRB assay; format: functional
[30] = system: ASPC1; experiment: Potency index, ratio of vorinostat IC50 to test compound IC50 for cytotoxicity against human ASPC1 cells assessed as inhibition of cell growth by SRB assay; format: functional
[31] = system: ASPC1; experiment: Cytotoxicity against human ASPC1 cells assessed as inhibition of cell growth by SRB assay; format: functional, cell-based
[32] = system: SW-620; experiment: Cytotoxicity against human SW620 cells assessed as inhibition of cell growth by SRB assay; format: functional, cell-based
[33] = system: Plasmodium falciparum; experiment: Antimalarial activity against erythrocytic stage of chloroquine resistant Plasmodium falcipuram Dd2 measured after 3 days by HRP2-ELISA; format: functional, organism-based; conditions: Dd2, 72 h
[34] = system: U2OS; experiment: cells; format: functional, cell-based; conditions: Homo sapiens, 72 h
Description: Cytotoxicity against human U2OS cells assessed as inhibition of cell growth measured after 72 hrs by MTT assay

[35] = system: Plasmodium berghei; experiment: Antimalarial activity against hepatic stage of Plasmodium berghei infected in human Huh-7 cells preincubated for 1 hr followed by parasite addition and measured after 48 hrs by bioluminescence assay; format: functional, organism-based
[36] = system: MCF7; experiment: cells; format: functional, cell-based; conditions: Homo sapiens, MCF7, 72 h
Description: Cytotoxicity against human MCF7 cells assessed as inhibition of cell growth measured after 72 hrs by MTT assay

[37] = system: HepG2; experiment: Cytotoxicity against human HepG2 cells assessed as inhibition of cell growth measured after 72 hrs by MTT assay; format: functional, cell-based; conditions: HepG2, 72 h
[38] = system: Plasmodium falciparum; experiment: Antimalarial activity against erythrocytic stage of chloroquine susceptible Plasmodium falcipuram 3D7 measured after 3 days by HRP2-ELISA; format: functional, organism-based; conditions: 3D7, 72 h

Compound: NC(=O)N1N=C(c2ccccc2)CC1c1ccccc1OCC(=O)NO (stereo unspecified)
- IC50 [1]: 18.7 µM
- IC50 [2]: 18.7 µM
- IC50 [3]: 18.7 µM
- IC50 [4]: 18.7 µM
- IC50 [5]: 18.7 µM
- IC50 [6]: 18.7 µM

Compound: CC(C)C[C@H](NC(=O)[C@@H](O)[C@H](N)Cc1ccccc1)C(=O)O [UBENIMEX]
- IC50 [1]: > 500 µM
- IC50 [2]: > 500 µM
- IC50 [3]: > 500 µM
- IC50 [4]: > 500 µM
- IC50 [5]: > 500 µM
- IC50 [6]: > 500 µM

Compound: O=C(NO)c1cn(C2CCN(C(=O)Cc3ccc4ccccc4c3)CC2)nn1
- IC50 [7]: 1.2 µM
- IC50 [8]: 1 µM
- IC50 [9]: 1.2 µM
- IC50 [10]: 1.2 µM
- IC50 [11]: 1.2 µM
- IC50 [12]: 1 µM
- IC50 [13]: 1.2 µM
- IC50 [14]: 1 µM
- IC50 [15]: 1 µM
- IC50 [16]: 1.2 µM
- IC50 [17]: 1 µM

Compound: CC(C)=CCC/C(C)=C/CC/C(C)=C/CSc1ccccc1C(=O)O [SALIRASIB]
- IC50 [18]: 48.6 µM
- IC50 [19]: 48.6 µM
- IC50 [20]: 48.6 µM
- IC50 [5]: 48.6 µM

Compound: O=C(NO)c1cn(C2CCN(C(=O)c3ccc(-c4ccccc4)cc3)CC2)nn1
- IC50 [7]: 1.2 µM
- IC50 [9]: 1.2 µM
- IC50 [10]: 1.2 µM
- IC50 [11]: 1.2 µM
- IC50 [13]: 1.2 µM
- IC50 [16]: 1.2 µM

Compound: COc1cc(/C=C2\N=C(c3ccccc3)N(n3c(SCC(=O)NO)nnc3-c3ccccc3)C2=O)ccc1O
- IC50 [21]: 0.09 µM
- GI50 [22]: 24.9 µM

Compound: CC(C)=CCC/C(C)=C/CC/C(C)=C/CSc1ccccc1C(=O)NCCCC(=O)NO
- IC50 [18]: 4.93 µM
- IC50 [19]: 4.93 µM
- IC50 [20]: 4.93 µM
- IC50 [5]: 4.93 µM
- IC50 [23]: 4.93 µM

Compound: CNC(=O)c1cc(Oc2ccc(NC(=O)Nc3ccc(Cl)c(C(F)(F)F)c3)cc2)ccn1 [SORAFENIB]
- IC50 [24]: 0.001 µM
- IC50 [25]: 0.001 µM
- IC50 [26]: 0.001 µM

Compound: CO/N=C1\CN(Cc2ccc(/C=C/C(=O)NO)cc2)c2ccc(F)cc21
- IC50 [27]: 0.47 µM
- Ratio IC50 [28]: 1.8
- Ratio IC50 [29]: 1.8
- Ratio IC50 [30]: 1.8
- IC50 [31]: 0.47 µM
- IC50 [32]: 0.47 µM
- IC50 [17]: 0.267 µM

Compound: COc1cc(NC(C)CCCCCNC(=O)CCC(=O)NO)c2ncccc2c1 (stereo unspecified)
- IC50 [33]: 0.3 µM
- IC50 [34]: 3.3 µM
- IC50 [35]: 0.3 µM
- IC50 [36]: 1.6 µM
- IC50 [37]: 1.6 µM
- IC50 [38]: 0.3 µM

Compound: CC(C)=CCC/C(C)=C/CC/C(C)=C/CSc1ccccc1C(=O)NCCC(=O)NO
- IC50 [18]: 4.93 µM
- IC50 [19]: 4.93 µM
- IC50 [20]: 4.93 µM
- IC50 [5]: 4.93 µM
- IC50 [23]: 4.93 µM
